Results taken from patent US10179779B2, “Polymorph forms” (RaQualia Pharma Inc., priority 2012, dated 2019).

Experiments:
Assay type in all cases: physicochemical
[1] = Thermal transformation of crystal form (variable-temperature PXRD); conditions: for temperature at which transformation to another polymorph form begins: heating, Form I to Form II, Form III to Form IV
Description: The PXRD analyses are performed using a Rigaku RINT-TTR X-ray powder diffractometer using Cu-Kalpha radiation. The samples can also be measured under the high/low temperature condition by using the attachment of the variant-temperature sample holder. The instrument is equipped with a fine focus X-ray tube. The tube voltage and amperage are set to 50 kV and 300 mA respectively. The divergence and scattering slits are set at 0.5° and the receiving slit is set at 0.15 mm. Diffracted radiation is detected by a NaI scintillation detector. A theta-two theta continuous scan at 4°/min (step size 0.02°) from 3 to 40(°) 2-theta is used. A silicon standard is analyzed to check the machine alignment. Data are collected and analyzed using-Rigaku X-ray system. Samples are prepared for analysis by placing them in an aluminum sample holder that is horizontally rotated at 60 rpm during data acquisition.
4-{[4-({[4-(2,2,2-Trifluoroethoxy)-1,2-benzisoxazol-3-yl]oxy}methyl)piperidin-1-yl]methyl}-tetrahydro-2H-pyran-4-carboxylic acid Polymorph Form I (5 mg) is placed on the temperature-variable sample holder of PXRD, and the temperature of the sample holder is raised to 120° C. and kept for 10 min., then cooled down to room temperature without nitrogen flow to the sample holder to afford Polymorph Form II of 4-{[4-({[4-(2,2,2-trifluoroethoxy)-1,2-benzisoxazol-3-yl]oxy}methyl)piperidin-1-yl]methyl}-tetrahydro-2H-pyran-4-carboxylic acid. Conversion to the Polymorph Form II is confirmed by in situ monitoring of PXRD spectrum.
4-{[4-({[4-(2,2,2-Trifluoroethoxy)-1,2-benzisoxazol-3-yl]oxy}methyl)piperidin-1-yl]methyl}-tetrahydro-2H-pyran-4-carboxylic acid Polymorph Form III begins to transform to Polymorph Form IV at around 90° C. Conversion to the Polymorph Form IV is confirmed by in situ monitoring of PXRD spectrum (variable-temperature PXRD measurement).

[2] = Solid-state stability study (constant temperature/humidity chamber; HPLC, PXRD); conditions: for purity after storage: 40° C./75% RH for 6 months (rounded)
Description: HPLC data are obtained by Waters Alliance 2695 HPLC system with 2996 PDA detector using the following conditions; • Column: Inertsil ODS-3 (3 micrometers, 4.6×150 mm), • Eluent: acetonitrile/10 mM ammonium acetate=32:68, • Detection: UV at 215 nm, • Flow rate: 1 mL/min, and • Column temperature: 40° C.
Solid-state stability study is performed using Nagano Science Constant temperature/humidity control chamber LH-20-11 M, LH-21-11 M, LTL-200D3CJ-14 or LTX-01. […] The crystalline form, thermal behavior, purity and/or weight change of the resultant sample after the exposure or irradiation are evaluated by PXRD, TG/DTA or DSC, HPLC, microbalance, respectively.

[3] = Hygroscopicity study by dynamic vapor sorption (DVS) analysis; conditions: for weight gain %: 25° C.; for weight gain % / water absorbed: DVS; for water absorbed: under 95% RH at 25° C.
Description: Hygroscopicity study is performed using Surface Measurement Systems DVS-1. The sample is placed on a microbalance in the instrument and the weight change during the sorption/desorption cycle at 25° C. is monitored. One of the sorption/desorption programs consists of a sorption scan from 0 to 95% relative humidity (RH) and a desorption scan from 95 to 10% RH. The other consists of a sorption scan from 40 to 95% RH and desorption scan from 95 to 0% RH, followed by a second sorption scan from 0 to 40% RH. Both programs are carried out at 5% RH increments and the sample is allowed to equilibrate for 360 minutes or until equilibration had been attained at each step. At the end of the DVS experiment the sample is measured by PXRD.
In the hygroscopicity study by dynamic vapor sorption (DVS) analysis, both Polymorph Form III and Polymorph Form V absorb less than 1.2 wt % under 95% relative humidity (RH) at 25° C. On the other hand, the white solid disclosed in the prior art WO2006/090224 and Polymorph Form I absorb 15 wt % or 14 wt % of water under 95% RH at 25° C.

[4] = 25° C./60% RH, 40° C./75% RH and/or Xenon lamp
[5] = 40° C./75% RH for 1 month, HPLC
[6] = 40° C./75% RH for 6 months, HPLC
[7] = storage at 40° C./75% RH for 1 month, HPLC
[8] = storage at 40° C./75% RH for 6 months, HPLC

## O=C(O)C1(CN2CCC(COc3noc4cccc(OCC(F)(F)F)c34)CC2)CCOCC1 [Polymorph Form I, 4-{[4-({[4-(2,2,2-trifluoroethoxy)-1,2-benzisoxazol-3-yl]oxy}methyl)piperidin-1-yl]methyl}-tetrahydro-2H-pyran-4-carboxylic acid]
[1]
  temperature at which transformation to another polymorph form begins: around 110 °C
[2]
  solid-state stability, comparison in words: more stable than the white solid
  purity after storage: 96%
[2]; 25° C./60% RH
  change of crystal form on storage: gradually transforms to Polymorph Form III
[2]; [4]
  solid-state stability (in words): stable
[2]; [5]
  Purity (Area %) Main peak: 99.4 Area %
[2]; [6]
  Purity (Area %) Main peak: 95.6 Area %
[2]; 70° C./75% RH
  time to transformation to Polymorph Form III: ≤ 1 days
[2]; [7]
  Assay Remaining %: 98%
[2]; [8]
  Assay Remaining %: 87%
[3]; 85% RH
  weight gain %: 0.065%
[3]; 90% RH
  weight gain %: 0.089%
[3]; 95% RH
  weight gain %: 14%
[3]
  water absorbed: 14 wt %

## O=C(O)C1(CN2CCC(COc3noc4cccc(OCC(F)(F)F)c34)CC2)CCOCC1 [Polymorph Form II, 4-{[4-({[4-(2,2,2-trifluoroethoxy)-1,2-benzisoxazol-3-yl]oxy}methyl)piperidin-1-yl]methyl}-tetrahydro-2H-pyran-4-carboxylic acid]
[2]
  solid-state stability, comparison in words: more stable than the white solid

## O=C(O)C1(CN2CCC(COc3noc4cccc(OCC(F)(F)F)c34)CC2)CCOCC1 [Polymorph Form III, 4-{[4-({[4-(2,2,2-trifluoroethoxy)-1,2-benzisoxazol-3-yl]oxy}methyl)piperidin-1-yl]methyl}-tetrahydro-2H-pyran-4-carboxylic acid]
[1]
  temperature at which transformation to another polymorph form begins: around 90 °C
[2]
  solid-state stability, comparison in words: more excellent solid-state stability than Polymorph Form I
  purity after storage: 99%
[2]; [4]
  solid-state stability (in words): stable
[2]; [5]
  Purity (Area %) Main peak: 99.7 Area %
[2]; [6]
  Purity (Area %) Main peak: 99.1 Area %
[2]; 70° C./75% RH
  solid-state stability (in words): chemically and physically stable
[2]; 70° C./75% RH, after 3 weeks, HPLC
  remaining: 100%
[2]; [7]
  Assay Remaining %: 99%
[2]; [8]
  Assay Remaining %: 97%
[3]
  hygroscopicity in comparison with the white solid of WO2006/090224: lower hygroscopicity
[3]; 85% RH
  weight gain %: 0.48%
[3]; 90% RH
  weight gain %: 0.53%
[3]; 95% RH
  weight gain %: 0.60%

## O=C(O)C1(CN2CCC(COc3noc4cccc(OCC(F)(F)F)c34)CC2)CCOCC1 [Polymorph Form IV, 4-{[4-({[4-(2,2,2-trifluoroethoxy)-1,2-benzisoxazol-3-yl]oxy}methyl)piperidin-1-yl]methyl}-tetrahydro-2H-pyran-4-carboxylic acid]
[1]
  temperature up to which the form is stable: up to 115 °C

## O=C(O)C1(CN2CCC(COc3noc4cccc(OCC(F)(F)F)c34)CC2)CCOCC1 [Polymorph Form V, 4-{[4-({[4-(2,2,2-trifluoroethoxy)-1,2-benzisoxazol-3-yl]oxy}methyl)piperidin-1-yl]methyl}-tetrahydro-2H-pyran-4-carboxylic acid]
[3]
  hygroscopicity in comparison with the white solid of WO2006/090224: lower hygroscopicity
[3]; 85% RH
  weight gain %: 0.74%
[3]; 90% RH
  weight gain %: 0.85%
[3]; 95% RH
  weight gain %: 1.1%

## O=C(O)C1(CN2CCC(COc3noc4cccc(OCC(F)(F)F)c34)CC2)CCOCC1 [White solid disclosed in the prior art WO2006/090224] [4-{[4-({[4-(2,2,2-trifluoroethoxy)-1,2-benzisoxazol-3-yl]oxy}methyl)piperidin-1-yl]methyl}-tetrahydro-2H-pyran-4-carboxylic acid, reference compound]
[3]; 85% RH
  weight gain %: 0.99%
[3]; 90% RH
  weight gain %: 5.3%
[3]; 95% RH
  weight gain %: 15%
[3]
  water absorbed: 15 wt %
